Experimental data reported in publication PMC6099886 (Proceedings of the National Academy of Sciences of the …, 2018).
Read-outs that look alike come from different tables or passages of the source. Values belong to the molecule of their own block, whether it stands above or below them. *1 amine or outer side, *2 acyl side, *3 side chain or, on linkers, in order; H or OH if unused. Where a SMILES comes first, the peptide text is derived from it. Bridges are numbered along the chain shown (N, C = ends). Roman numbers before positions name the chains, in order. [ ]: non-standard residue; d: D form. Actinocin(9to1) = Cc1c2oc3c(C)ccc(C(=O)[*:1])c3nc-2c(C(=O)[*:2])c(N)c1=O; NMeV = CN[C@H](C(=O)O)C(C)C; Sar = CNCC(=O)O

Tests used:
[1] = cited from earlier work
DDR2-His = target: T1, DDR2-His (Homo sapiens, UniProt Q16832); experiment: Solid-phase binding assay of DDR2-His; conditions: 25 nM DDR2-His, collagen peptide
T1 sequence (Q16832 22-398): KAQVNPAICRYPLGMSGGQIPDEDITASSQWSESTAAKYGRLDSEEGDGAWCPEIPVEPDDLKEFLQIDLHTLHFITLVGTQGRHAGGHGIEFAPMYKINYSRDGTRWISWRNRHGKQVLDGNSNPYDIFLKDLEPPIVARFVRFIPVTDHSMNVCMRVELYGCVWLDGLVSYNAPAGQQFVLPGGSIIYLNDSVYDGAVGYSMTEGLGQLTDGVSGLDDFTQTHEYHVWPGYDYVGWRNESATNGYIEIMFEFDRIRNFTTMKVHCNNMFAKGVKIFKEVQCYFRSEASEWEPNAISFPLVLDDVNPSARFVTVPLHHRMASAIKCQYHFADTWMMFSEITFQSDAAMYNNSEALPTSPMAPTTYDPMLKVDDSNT

DDR2 = conditions: cited from earlier work
4T1 GFP/luc cells = experiment: Lung colonization after tail vein injection of 4T1 GFP/luc cells in BALB/cJ mice; type: in vivo, mouse; conditions: treated daily, 7 d
SEC = target: the molecule itself; experiment: SEC
[2] = target: the molecule itself
cross-linking = target: the molecule itself; experiment: cross-linking

- DDR2 inhibition in ECD solid-phase binding assay (in words) (DDR2-His): inhibits DDR2
Molecule: Cc1c2oc3c(C)ccc(C(=O)N[C@@H]4C(=O)N[C@H](C(C)C)C(=O)N5CCC[C@H]5C(=O)N(C)CC(=O)N(C)[C@@H](C(C)C)C(=O)O[C@@H]4C)c3nc-2c(C(=O)N[C@@H]2C(=O)N[C@H](C(C)C)C(=O)N3CCC[C@H]3C(=O)N(C)CC(=O)N(C)[C@@H](C(C)C)C(=O)O[C@@H]2C)c(N)c1=O [actinomycin D] (I: T[dV]P[Sar][NMeV] / II: T[dV]P[Sar][NMeV]; ester I:1-I:C, II:1-II:C; linker I:N-II:N via Actinocin(9to1))
- toxicity profile [1]: high toxicity profile
- DDR2 inhibition in previous in vitro screen (DDR2): weak inhibitor

- DDR2 inhibition in ECD solid-phase binding assay (in words) (DDR2-His): inactive
Molecule: Nc1c(C(=O)O)c2nc3c(C(=O)O)cccc3oc-2cc1=O [cinnabarinic acid]
- lung colonization by 4T1 GFP/luc cells (4T1 GFP/luc cells): no effect

B1: DDR2 F96A/T98A double mutant ECD, His-tagged (domain or fragment, UniProt Q16832 22-399, looked up)
chain: KAQVNPAICRYPLGMSGGQIPDEDITASSQWSESTAAKYGRLDSEEGDGAWCPEIPVEPDDLKEFLQIDLHTLHAIALVGTQGRHAGGHGIEFAPMYKINYSRDGTRWISWRNRHGKQVLDGNSNPYDIFLKDLEPPIVARFVRFIPVTDHSMNVCMRVELYGCVWLDGLVSYNAPAGQQFVLPGGSIIYLNDSVYDGAVGYSMTEGLGQLTDGVSGLDDFTQTHEYHVWPGYDYVGWRNESATNGYIEIMFEFDRIRNFTTMKVHCNNMFAKGVKIFKEVQCYFRSEASEWEPNAISFPLVLDDVNPSARFVTVPLHHRMASAIKCQYHFADTWMMFSEITFQSDAAMYNNSEALPTSPMAPTTYDPMLKVDDSNTR
- stoichiometry N (SEC): 2

B2: DDR2 F96A/T98A expressed as a full-length receptor in HEK293 cells (receptor, UniProt Q16832 22-855, looked up)
chain: KAQVNPAICRYPLGMSGGQIPDEDITASSQWSESTAAKYGRLDSEEGDGAWCPEIPVEPDDLKEFLQIDLHTLHAIALVGTQGRHAGGHGIEFAPMYKINYSRDGTRWISWRNRHGKQVLDGNSNPYDIFLKDLEPPIVARFVRFIPVTDHSMNVCMRVELYGCVWLDGLVSYNAPAGQQFVLPGGSIIYLNDSVYDGAVGYSMTEGLGQLTDGVSGLDDFTQTHEYHVWPGYDYVGWRNESATNGYIEIMFEFDRIRNFTTMKVHCNNMFAKGVKIFKEVQCYFRSEASEWEPNAISFPLVLDDVNPSARFVTVPLHHRMASAIKCQYHFADTWMMFSEITFQSDAAMYNNSEALPTSPMAPTTYDPMLKVDDSNTRILIGCLVAIIFILLAIIVIILWRQFWQKMLEKASRRMLDDEMTVSLSLPSDSSMFNNNRSSSPSEQGSNSTYDRIFPLRPDYQEPSRLIRKLPEFAPGEEESGCSGVVKPVQPSGPEGVPHYAEADIVNLQGVTGGNTYSVPAVTMDLLSGKDVAVEEFPRKLLTFKEKLGEGQFGEVHLCEVEGMEKFKDKDFALDVSANQPVLVAVKMLRADANKNARNDFLKEIKIMSRLKDPNIIHLLAVCITDDPLCMITEYMENGDLNQFLSRHEPPNSSSSDVRTVSYTNLKFMATQIASGMKYLSSLNFVHRDLATRNCLVGKNYTIKIADFGMSRNLYSGDYYRIQGRAVLPIRWMSWESILLGKFTTASDVWAFGVTLWETFTFCQEQPYSQLSDEQVIENTGEFFRDQGRQTYLPQPAICPDSVYKLMLSCWRRDTKNRPSFQEIHLLLLQQGDE
- stoichiometry N [2]: 2

B3: full-length DDR2 expressed in HEK293 cells (receptor, UniProt Q16832 22-855, looked up)
chain: KAQVNPAICRYPLGMSGGQIPDEDITASSQWSESTAAKYGRLDSEEGDGAWCPEIPVEPDDLKEFLQIDLHTLHFITLVGTQGRHAGGHGIEFAPMYKINYSRDGTRWISWRNRHGKQVLDGNSNPYDIFLKDLEPPIVARFVRFIPVTDHSMNVCMRVELYGCVWLDGLVSYNAPAGQQFVLPGGSIIYLNDSVYDGAVGYSMTEGLGQLTDGVSGLDDFTQTHEYHVWPGYDYVGWRNESATNGYIEIMFEFDRIRNFTTMKVHCNNMFAKGVKIFKEVQCYFRSEASEWEPNAISFPLVLDDVNPSARFVTVPLHHRMASAIKCQYHFADTWMMFSEITFQSDAAMYNNSEALPTSPMAPTTYDPMLKVDDSNTRILIGCLVAIIFILLAIIVIILWRQFWQKMLEKASRRMLDDEMTVSLSLPSDSSMFNNNRSSSPSEQGSNSTYDRIFPLRPDYQEPSRLIRKLPEFAPGEEESGCSGVVKPVQPSGPEGVPHYAEADIVNLQGVTGGNTYSVPAVTMDLLSGKDVAVEEFPRKLLTFKEKLGEGQFGEVHLCEVEGMEKFKDKDFALDVSANQPVLVAVKMLRADANKNARNDFLKEIKIMSRLKDPNIIHLLAVCITDDPLCMITEYMENGDLNQFLSRHEPPNSSSSDVRTVSYTNLKFMATQIASGMKYLSSLNFVHRDLATRNCLVGKNYTIKIADFGMSRNLYSGDYYRIQGRAVLPIRWMSWESILLGKFTTASDVWAFGVTLWETFTFCQEQPYSQLSDEQVIENTGEFFRDQGRQTYLPQPAICPDSVYKLMLSCWRRDTKNRPSFQEIHLLLLQQGDE
- stoichiometry N (cross-linking): 2
